Test results reported in patent US8809627B2, “Plant isoflavone and isoflavanone O-methyltransferase genes” (The Samuel Roberts Noble Foundation, Inc., priority 2006, dated 2014).

How the values were obtained:
MtIOMT5 = molecular target: T1, MtIOMT5 (Medicago truncatula, UniProt Q29U70); assay: OMT assays with purified recombinant MtIOMT5 (relative activity; HPLC/MS of products); format: biochemical; conditions: for Relative activity, MtIOMT5: 50 μM S-adenosyl methionine, 100 μM acceptor substrate, most converted substrate = 100%; for Position of methylation / reaction products, MtIOMT5: HPLC against standards, tandem MS
T1 construct: His-tag (N); made in house; host or cells: E. coli BL21(DE3)
T1 sequence (Q29U70 1-364): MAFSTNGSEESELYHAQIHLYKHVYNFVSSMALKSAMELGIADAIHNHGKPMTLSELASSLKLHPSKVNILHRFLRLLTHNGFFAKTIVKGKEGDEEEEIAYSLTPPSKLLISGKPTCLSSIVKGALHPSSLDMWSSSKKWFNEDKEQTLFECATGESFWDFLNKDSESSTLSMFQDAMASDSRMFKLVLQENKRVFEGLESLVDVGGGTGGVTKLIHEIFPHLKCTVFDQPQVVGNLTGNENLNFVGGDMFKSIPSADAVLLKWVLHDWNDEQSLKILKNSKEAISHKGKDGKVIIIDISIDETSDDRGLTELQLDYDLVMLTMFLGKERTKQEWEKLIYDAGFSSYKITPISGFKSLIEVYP
Excerpt: (§1) Cloning of MtIOMT5 (corresponding to TC 100926, TIGR MtGI v.8) was as described previously (Liu et al., 2005). To obtain a full-length cDNA for MtIOMT2, specific primers designed based upon the M. truncatula genomic sequence were used to amplify the MtIOMT2 coding sequence from M. truncatula root cDNA. The amplified product was cloned into the pGEM®-T easy vector (Promega, Madison Wis.) and sequenced to confirm its identity. MtIOMTs were cloned into the pET28a vector (EMD Biosciences, Inc., San Diego, Calif.) using PCR-based amplification with primers designed to introduce EcoRI and XhoI restriction sites; BamHI and XhoI sites were used for cloning MtIOMT6 due to the presence of an internal EcoRI site in this particular cDNA. Because the EST for MtIOMT8 was missing a start codon, the primer designed to clone MtIOMT8 into pET28a contained an additional 2-nucleotide insertion to generate an ATG start site. All MtIOMTs were expressed as translational fusions to an N-terminal His-tag. Expression of MtIOMTs in E. coli BL21(DE3) and purification by Ni^2+-NTA chromatography were as described (Zubieta et al., 2001). Proteins were dialyzed against 20 mM Tris pH 8.0, 100 mM NaCl, 10% (v/v) glycerol, and 14 mM β-mercaptoethanol. Protein concentration was determined by Bradford assay using BSA as a standard (Bradford, 1976).
Reactions (200 μl) were performed in 0.1 M potassium phosphate, pH 7.4, 10% (w/v) sucrose, 14 mM β-mercaptoethanol with 10 μM protein, 0.5 mM S-adenosyl-L-methionine, and 80 μM phenolic substrates. All substrates were purchased from Indofine (Hillsborough, N.J.) except 6,7-dihydroxy-4′-methoxyisoflavone, dihydrodaidzein, and vestitol, which were purchased from Apin (Oxfordshire, UK). […] OMT assays were incubated at 30° C. for 2 h and extracted with ethyl acetate. Ethyl acetate extracts were dried under N2 and the resultant material was resuspended in 50-100 μl of methanol. Samples were analyzed on an Agilent 1100 HPLC, equipped with a quaternary pump (model #G1311A), a degasser (model #G1322A), an autosampler (model #G1313A), and a diode array detector (model #G1315A). Samples of 20 μl were applied to an ODS2 reverse-phase column (5 μm particle size, 4.6×250 mm) and eluted in 1% (v/v) phosphoric acid with an increasing gradient of acetonitrile (0-5 min, 25%; 5-35 min, 25-50%; 35-39 min, 50-100%) at a flow rate of 1 ml/min. To resolve the 4′-O-methylated and 7-O-methylated products of genistein, samples were applied to a Phenomenex SYNERGI Polar-RP 80 Å column (4 μm particle size, 4.6×250 mm) and eluted in water with an increasing gradient of acetonitrile (0-5 min, 20%; 5-17 min, 20-38%; 17-33 min, 38%; 33-45 min, 38-56%; 45-46 min, 56-100%) at a flow rate of 1 ml/min. Chiral chromatography was performed as described (Liu et al., 2005).
(§2) For determination of specific activities, reactions (100 μl) were performed in 0.1 M potassium phosphate, pH 7.4, 10% (w/v) sucrose, 14 mM β-mercaptoethanol with 0.2-μg protein, 50 μM S-adenosyl-L-methionine (0.025 μCi ^14C-SAM per reaction), and 100 μM substrate. Reactions were incubated at 30° C. for 15-25 min and stopped by addition of 4 μl of 1N HCl. Products were extracted into 500 μl of ethyl acetate and 400 μl was used for liquid scintillation counting.
An HP 1100 series II LC system (Hewlett-Packard, Palo Alto, Calif.) with a photodiode array detector was coupled to a Bruker Esquire ion-trap mass spectrometer (ITMS) equipped with an electrospray ionization source. A reverse phase, C18, 5 μm, 4.6×250 mm column (J. T. Baker, Phillipsburg, N.J.) was used for separations. The mobile phase consisted of 0.1% (v/v) acetic acid using linear gradients of 5-90% acetonitrile (v/v) in 70 min. The flow rate was 0.8 ml/min, and the temperature of the column was kept at 28° C. Both positive- and negative-ion mass spectra were acquired. […]

MtIOMT1 = assay: OMT assays with purified recombinant MtIOMT1 (relative activity with 14C-SAM); format: biochemical, Medicago truncatula; conditions: for Relative activity, MtIOMT1: 50 μM S-adenosyl methionine, 100 μM acceptor substrate, most converted substrate = 100%
Excerpt: as §1, with “1976). […]” for “1976).”
as §2

SMILES	Relative activity, MtIOMT5 (MtIOMT5)	Relative activity, MtIOMT1 (MtIOMT1)	Fold reduction of activity compared with 6,7,4′-trihydroxyisoflavone (MtIOMT1; MtIOMT1, methylation of the 4′-hydroxyl group)	Fold by which relative initial activity with glycitein is higher than with this substrate (MtIOMT1; MtIOMT1, saturating concentration of glycitein) [fold]	Position of methylation / reaction products, MtIOMT5 (MtIOMT5)
O=c1c(-c2ccc(O)cc2)coc2cc(O)c(O)cc12 [6,7,4′-trihydroxyisoflavone]	0%	43.9%			
COc1ccc(-c2coc3cc(O)c(O)cc3c2=O)cc1 [6,7-dihydroxy,4′-methoxyisoflavone]	0%	≦1%	more than 80 fold		
O=c1c(-c2ccc(O)c(O)c2)coc2cc(O)ccc12 [7,3′,4′-trihydroxyisoflavone]	0%	40.8%			
O=c1cc(-c2ccc(O)cc2)oc2cc(O)ccc12 [7,4′-dihydroxyflavone]	0%	0%			
O=c1cc(-c2ccc(O)cc2)oc2cc(O)cc(O)c12 [Apigenin]	0%	0%			
O=c1oc2cc(O)ccc2c2oc3cc(O)ccc3c12 [Coumestrol]	0%	0%			
O=c1c(-c2ccc(O)cc2)coc2cc(O)ccc12 [Daidzein]	0%	20.6%		5	
O=C1c2ccc(O)cc2OCC1c1ccc(O)cc1 (stereo not drawn) [Dihydrodaidzein]	7.9%	15.6%			4′-methoxy, 7-methoxy, and 4′,7-dimethoxy products
O=c1c(-c2ccc(O)cc2)coc2cc(O)cc(O)c12 [Genistein]	0%	49.2%			
COc1cc2c(=O)c(-c3ccc(O)cc3)coc2cc1O [Glycitein]	0%	100%			
O=c1c(O)c(-c2cc(O)c(O)c(O)c2)oc2cc(O)cc(O)c12 [Myricetin]	0%	0%			
O=C1C[C@@H](c2ccc(O)cc2)Oc2cc(O)cc(O)c21 [Naringenin]	≦1%	0%			methylated on the 4′-positions
COc1ccc(C2COc3cc(O)ccc3C2)c(O)c1 (stereo not drawn) [Vestitol]	≦1%	0%			
